Laboratory results as given in patent publication US6232345A, “Cerebral function improving agents” (Shimizu Pharmaceutical Co., Ltd., priority 1995, dated 2001).
Where “and” joins values, the source holds several entries; their conditions need not be identical. Identical values can stand only once. Like-named read-outs stand apart in the source and are kept apart here.

Tests used:
[1] = test system: cerebral edema induced by ligation and severing of the bilateral common carotid arteries; assay: Cerebral edema suppressing effect: cerebral water content after ligation and severing of the bilateral common carotid arteries (Examples 1-3); assay type: in vivo, male Wistar rats
Excerpt: (§1) Rats were operated on under anesthesia which was introduced with ether and maintained by inhalation of a mixture of isoflurane/nitrous oxide/oxygen (0.5:70:30). A midline incision was made in the neck and the connective tissue was carefully dissected to avoid injury to the vagus nerve while exposing the bilateral common carotid arteries.
For test drug administration, the right external jugular vein was cannulated and the other end of the cannula was led out through the back of the animal. Then the common carotid artery was ligated at two points (head side and heart side) and severed between the two ligatures. […]
In sham-operated rats, the bilateral common carotid arteries were exposed in the same way and the skin incision was closed without arterial ligation and severing.
On completion of administration, each rat was decapitated, and the whole brain was isolated immediately. After removal of the cerebellum and the medulla oblongata, the wet weight of the cerebrum was measured. […] The cerebral water content was calculated by using the following formula:
Cerebral water content (%)=(wet weight of the cerebrum-dry weight of the cerebrum)/wet weight of the cerebrum×100. […]

Wistar or SD rats [2] = assay: Single dose toxicity study (Example 8); assay type: in vivo, Wistar or SD rats of both sexes; conditions: 2000 mg/kg, oral or intravenous
Method: (1) BHBNa was orally or intravenously administered to Wistar or SD rats of both sexes at a single dose of 2000 mg/kg.

[3] = test system: cerebral ischemia model (BLCL); assay: Cerebral ATP and lactate levels in rats with BLCL (Example 6); assay type: in vivo, male Wistar rats
Excerpt: as §1
For test drug administration, the right external jugular vein was cannulated and the other end of the cannula was led out through the back of the animal. Then the common carotid artery was ligated at two points (head side and heart side) and severed between the two ligatures.
The level of significance was set at p<0.05.

Wistar or SD rats [4] = assay: 2-week repeated dose toxicity study (Example 8); assay type: in vivo, male Wistar or SD rats; conditions: 500 mg/kg-2000 mg/kg, oral or intravenous, 2 weeks
Excerpt: (2) BHBNa was repeatedly administered orally or intravenously to male Wistar or SD rats for 2 weeks.

normal rats without BLCL = assay: Cerebral ATP and lactate levels in normal rats without BLCL (Example 6); assay type: in vivo, male Wistar rats; conditions: continuous infusion for 3 hours
Method: Male Wistar rats (Japan S.L.C., Ltd.) were used in the study. The animals were maintained at 23±3° C. and 55±15% humidity with lights on for 12 hours daily (from 7:00 to 19:00). They were fed a pellet diet (MF, Oriental Yeast Co., Ltd.) and tap water ad libitum. Their weight ranged from 161.7 to 249.0 g at the time of the study.
Exactly 0.2 g of BHBNa was weighed and dissolved in distilled water for injection to make a final volume of 10 ml. To 9 ml of this solution, physiological saline was added to make up 30 ml. The 0.6% BHBNa solution thus obtained was sterilized by filtration through DISMIC-25CS ([…], ADVANTEC Toyo) prior to use.
After 3 hours of cerebral ischemia, the head of each rat was irradiated with microwaves (5 kW) for 2 seconds using a microwave applicator (TMW6402C, Toshiba) to terminate all enzyme reactions and the production/degradation of metabolites in the brain tissue. […] The weight of the cerebrum was calculated from the difference of the weight of the test tube measured as above.
The cerebral ATP level was determined by an enzymatic method (the luciferin-luciferase method) by using Lumat LB9507 (EG&G BERTHOLD). The data obtained were expressed as μmoles/wet weight g.
The cerebral lactate level was determined by an enzymatic method (lactate dehydrogenase method) by using Determiner LA (Kyowa Medics). The data obtained were expressed as μmoles/wet weight g. […]

[5] = test system: middle cerebral artery occlusion/reperfusion model; assay: Cerebral infarction reducing effect: middle cerebral artery occlusion/reperfusion model (Example 7); assay type: in vivo, male Wistar rats
Method: Male Wistar rats aged 8 weeks (Charles River Japan, Inc.) were used in the study. […] They were fed a pellet diet (MF, Oriental Yeast Co., Ltd.) and tap water ad libitum.
Exactly 0.2 g of BHBNa was weighed and dissolved in distilled water for injection to make up a final volume of 10 ml. To 9 ml of this solution, physiological saline was added to make up 30 ml.
Under ether anesthesia, a midline incision was made in the neck. The incision reached the right carotid bifurcation while avoiding injury to the vagus nerve. Around the bifurcation, the common carotid artery and the external carotid artery were separated from surrounding connective tissue and adipose tissue. […] The external carotid artery was then double ligated with 5-0 silk and cut In addition, the right internal carotid artery was dissected out from the surrounding connective tissue to expose the pterygopalatine artery. The external carotid artery was incised, and an embolizing thread was inserted via this incision to a distance of 21 mm into the internal carotid artery. The tip of the thread went beyond the origin of the middle cerebral artery and entered the anterior cerebral artery by about 1-2 mm, so that the middle cerebral artery was occluded by the central portion of the thread.
In sham-operated rats, the skin incision was closed without inserting any embolizing thread into the internal carotid artery. The rats were then maintained until the scheduled time of sacrifice.
After the middle cerebral artery was occluded with an embolizing thread for 2 hours, the thread was removed under ether anesthesia to allow reperfusion.
Immediately after insertion of the embolizing thread, the rats were given a continuous infusion of physiological saline or 0.6% BHBNa solution via a cannula inserted into a femoral vein on the previous day. Administration was performed at a rate of 5 ml/kg/hr using an infusion pump and was continued until the scheduled time of sacrifice (24 hours after reperfusion).
Each rat was sacrificed at 24 hours after reperfusion. The cerebrum was isolated, and cut into 2 mm coronal sections by using a Brain Slicer (MUROMACHI KIKAI Co., Ltd.) from a point 7 mm behind the edge of the forebrain to the interauricular line (telencephalon). The brain sections were stained to detect normal mitochondria by total immersion for 30 min in a 2% solution of 2,3,5-triphenyltetrazolium chloride (TTC) in physiological saline. […]
Photographs of the TTC-stained coronal sections of the cerebrum were scanned by using an film scanner and the data were processed with image analyzing software (NIH Image). The percent infarcted area (mitochondria death) on each cerebral section was calculated from the total area of the unstained regions relative to the entire area of the section.

[6] = Stability of test drug and prepared solutions; assay type: physicochemical
KCN-induced death = assay type: in vivo, male Wistar rats; conditions: for survival time after KCN: KCN 3 mg/kg, mean ± S.E.
[7] = test system: bilateral common carotid artery ligation (BLCL); assay: Cerebral metabolic activation: cerebral water and electrolyte content in rats with bilateral common carotid artery ligation (Example 5); assay type: in vivo, male Wistar rats; conditions: 25 mg/kg/hr i.v. infusion for 5 hours, n = 9, mean ± S.E.
Method: Male Wistar rats purchased from Japan S.L.C., Ltd. were used after a 1-week acclimatization period. The animals were maintained at 23±2° C. and 55±10% humidity with lights on for 12 hours daily (from 7:00 to 19:00). They were fed a pellet diet (MF, Oriental Yeast Co., Ltd.) and tap water ad libitum. Their weight averaged 172.1±6.7 g at the time of the study.
Sodium β-hydroxybutyrate (BHBNa).
The dose of BHBNa tested was 25 mg/kg/hr. The test group was treated with a 20 mM BHBNa solution, while the control group received physiological saline. In both groups, administration was performed at a rate of 10 ml/kg/hr for 5 hours.
Rats were operated on under anesthesia which was introduced with ether and maintained by inhalation of a mixture of isoflurane/nitrous oxide/oxygen (0.5:70:30). A midline incision was made in the neck. The connective tissue was dissected carefully to avoid injury to the vagus nerves while exposing the bilateral common carotid arteries. The right external jugular vein was cannulated and the other end of the cannula was led out through the back. Each of the exposed common carotid arteries was ligated at two points (head side and heart side) and severed between the two ligatures. The skin incision was sutured and each rat was immediately given the test drug or physiological saline by continuous intravenous infusion using an infusion pump at a rate of 10 ml/kg/hr for 5 hours. In sham-operated rats, the bilateral common carotid arteries were exposed in the same way and the skin incision was closed without arterial ligation and severing. After completion of administration, each animal was sacrificed by decapitation and the whole brain was immediately isolated. After removal of the cerebellum and the medulla oblongata, the wet weight of the cerebrum was measured. The cerebrum was then dried at 105° C. for 24 hours and the dry weight was measured. The cerebral water content was calculated by using the following formula: […]
Data are expressed as the mean±standard error (S.E.). […]

[8] = cited from earlier work
acute cerebral injury = conditions: intravenous, after acute cerebral injury; cited from earlier work

COC(=O)CC(C)O (stereo not drawn) [methyl β-hydroxybutyrate]
cerebral water content vs. physiological saline-treated group ([1]; parenteral solution with methyl β-hydroxybutyrate 2.42 g/l, NaCl, KCl, glucose): lower than in the physiological saline-treated group

CC(O)CC(=O)[O-].[Na+] (stereo not drawn)
single dose toxicity (Wistar or SD rats [2]): survived without any abnormal findings | relation of cerebral water content to dose ([1]; FIG. 1, i.v. infusion for 5 hours): related to the dose | statistical significance of lower cerebral water content vs. physiological saline group ([1]; by dose, i.v. infusion 10 ml/kg/hr for 5 hours): statistically significant (p<0.01) at doses of 5 mM or more | cerebral water content vs. physiological saline group ([1]; sodium β-hydroxybutyrate 3.1-400 mg/kg/hr (2.5-320 mM, 10 ml/kg/hr) i.v. infusion for 5 hours, FIG. 1): lower than in the physiological saline group | cerebral ATP level ([3]; 3 hours of BLCL, BHBNa 30 mg/kg/hr, mean±S.E., saline 0.52±0.10, sham 1.85±0.13): 1.56±0.10 μmoles/wet weight g | cerebral lactate level ([3]; 3 hours of BLCL, BHBNa 30 mg/kg/hr, mean±S.E., saline 11.39±0.85, sham 0.61±0.12): 1.36±0.17 μmoles/wet weight g | repeated dose toxicity (Wistar or SD rats [4]): survived without any abnormal findings | cerebral ATP level in normal rats (normal rats without BLCL): no significant effect | cerebral lactate level in normal rats (normal rats without BLCL): no significant effect | localization of infarct foci ([5]; 30 mg/kg/hr continuous infusion): Most infarct foci were localized in the central ischemic zone and few extended to the surrounding regions | Infarction % ([5]; 30 mg/kg/hr i.v. infusion from arterial occlusion (2 hours) to 24 hours after reperfusion, n = 4, saline 35.18±2.69%, listed as BHBNa): 18.99% and 18.99 ±1.59% | stability of prepared solution [6]: at least 1 week | stability on storage [6]: 5 months | changes in quality of the lot used in the study ([6]; tested after completion of the study): no changes in quality | survival time after KCN (KCN-induced death; 50 mg/kg/hr for 1 hour i.v., saline 44.6±1.6 sec, FIG. 2): 58.8 ± 2.4 s | survival time after KCN (KCN-induced death; 100 mg/kg/hr for 1 hour i.v. (duration comparison), FIG. 3): 58.2 ± 2.2 s | survival time after KCN (KCN-induced death; 100 mg/kg/hr for 1 hour i.v., saline 44.6±1.6 sec, FIG. 2): 58.8 ± 1.2 s | survival time after KCN (KCN-induced death; 100 mg/kg/hr for 3 hours i.v., FIG. 3): 61.0 ± 1.6 s | Cerebral water content ([7]; P < 0.01 vs. physiological saline (81.96 ± 0.21)): 79.50 ± 0.09% | Na^+ content ([7]; cerebral, P < 0.01 vs. physiological saline (304.39 ± 12.83)): 269.74 ± 15.98 mEq/kg dry weight | K^+ content ([7]; cerebral, physiological saline 405.99 ± 20.96, not significantly different): 420.42 ± 5.76 mEq/kg dry weight

CC(O)CC(=O)O (stereo not drawn) [β-hydroxybutyric acid]
water solubility [8]: water-soluble | increase in cerebral water content induced by BLCL for 6 hours ([1]; at the doses tested in Example 4 (50 and 100 mg/kg/hr)): significantly suppressed | development of cerebral edema (summary) ([1]; simultaneous intravenous administration, ligation of bilateral common carotid arteries): prevented the development of cerebral edema | cerebral ATP levels (summary) ([3]; ligation of bilateral common carotid arteries): high cerebral ATP levels were maintained | ketone level in the cerebrospinal fluid (acute cerebral injury): increased | lactate level in the cerebrospinal fluid (acute cerebral injury): decreased | extent of cerebral infarction (summary) ([5]; administration during ligation of the middle cerebral artery and subsequent reperfusion): markedly reduced | survival time after lethal KCN (summary) (KCN-induced death; intravenous pretreatment): prolonged the survival time
